Experimental data taken from patent US20250082764A1, “DRUG FOR TREATING TRIPLE NEGATIVE BREAST CANCER” (HINOVA PHARMACEUTICALS INC., priority 2022, published 2025).

Assays:
Assay type in all cases: cell-based
MDA-MB-453 cells [1] = experiment: Inhibition of proliferation of MDA-MB-453 cells by single agents (CCK-8 or CTG); conditions: co-incubation for 7-10 days; for inhibitory effect on the proliferation of MDA-MB-453 cells (in words): single agent
Protocol: Triple negative breast cancer MDA-MB-453 cells in logarithmic growth stage were inoculated into a 96-well plate at a concentration of 4×10^3 cells/well, and then incubated in an incubator at 37° C., 5% CO2, and saturated humidity for 24 h or 48 h. To the negative control well, was added RPMI 1640 cell medium containing 10% fetal bovine serum in the same volume as the drug. After cultured for 24 h or 48 h, to the 96-well plate, were added AR PROTACs compounds 162, 177, 230, 259, 279, 281, 282, 325, 357, 400, ARV-110, ARV-766 and AR inhibitor HC-1119, respectively. The concentrations of compounds 177, 230, 259, 279, 281, 282, 325, 357, 400, ARV-110, and ARV-766 are 0 μM, 0.002 μM, 0.005 μM, 0.014 μM, 0.041 μM, 0.123 μM, 0.370 μM, 1.111μM, 3.333 μM or 10 μM; while the concentrations of HC-1119 are 0 μM, 1.23 μM, 3.70 μM, 11.11 μM, 33.33 μM or 100 μM.
(§1) After addition of the drugs and co-incubation for 7-10 days, 10 μL of CCK-8 was added to each well, and then the plate was further cultured for 2 h. The absorbance value (OD) of each well was measured using a microplate reader at a wavelength of 450 nm. The survival rate was calculated using Prism software, the relative survival rate=(OD value of drug well/OD value of control well)×100%. Alternatively, 100 μL of medium was removed from each well, and then 50 μL of CTG was added. The plate was shaken in the dark for 2 min, allowed to stand for 10 min, and then measured using a microplate reader in Luminescence mode. Prism software was used to calculate the survival rate, the relative survival rate=(the RLU value of drug well/the RLU value of control well)×100%.

MDA-MB-453 cells [2] = experiment: Proliferation of MDA-MB-453 cells, AR PROTAC in combination with PI3K inhibitor Alpelisib (Combination Index); conditions: molar ratio of compound to Alpelisib 1:27-9:1; 7 days; synergistic when CI<1
Protocol: Triple negative breast cancer MDA-MB-453 cells in logarithmic growth stage were inoculated into a 96-well plate at a concentration of 4×10^3 cells/well, and then incubated in an incubator at 37° C., 5% CO2, and saturated humidity for 24 h. To the negative control wells, were added RPMI 1640 cell culture medium containing 10% fetal bovine serum in the same volume as the drug. After cultured for 24 h, to the 96-well plate, were sequentially added AR PROTACs compounds 279, 281, 282, ARV-110, ARV-766 and PI3K inhibitor Alpelisib, respectively.
as §1, with “7” for “7-10”

MDA-MB-453 cells [3] = experiment: Proliferation of MDA-MB-453 cells, AR PROTAC in combination with PI3K inhibitor Idelalisib (Combination Index); conditions: molar ratio of compound to Idelalisib 1:270-1:3.333; 7-10 days; synergistic when CI<1
Protocol: Triple negative breast cancer MDA-MB-453 cells in logarithmic growth stage were inoculated into a 96-well plate at a concentration of 4×10^3 cells/well, and then incubated in an incubator at 37° C., 5% CO2, and saturated humidity for 24 h. To the negative control wells, were added RPMI 1640 cell culture medium containing 10% fetal bovine serum in the same volume as the drug. After cultured for 24 h, to the 96-well plate, were sequentially added AR PROTACs compounds 279, 281, 282, ARV-110, ARV-766 and PI3K inhibitor Idelalisib, respectively.
as §1, with “adding” for “addition of”, “co-incubating” for “co-incubation”

MDA-MB-453 cells [4] = experiment: Proliferation of MDA-MB-453 cells, AR PROTAC in combination with chemotherapeutic drug Paclitaxel (Combination Index); conditions: molar ratio of compound to Paclitaxel 20:1-5000:1; 7 days; synergistic when CI<1
Protocol: Triple negative breast cancer MDA-MB-453 cells in logarithmic growth stage were inoculated into a 96-well plate at a concentration of 4×10^3 cells/well, and then incubated in an incubator at 37° C., 5% CO2, and saturated humidity for 24 h. To the negative control wells, were added RPMI 1640 cell culture medium containing 10% fetal bovine serum in the same volume as the drug. After cultured for 24 h, to the 96-well plate, were sequentially added AR PROTACs compounds 279, 281, 282, ARV-110 and chemotherapeutic drug Paclitaxel, respectively.
as §1, with “adding” for “addition of”, “co-incubating” for “co-incubation”, “7” for “7-10”

MDA-MB-453 cells [5] = experiment: Proliferation of MDA-MB-453 cells, AR PROTAC in combination with PI3K inhibitor Duvelisib (Combination Index); conditions: molar ratio of compound to Duvelisib 1:30-1:1.111; 7-10 days; synergistic when CI<1
Protocol: Triple negative breast cancer MDA-MB-453 cells in logarithmic growth stage were inoculated into a 96-well plate at a concentration of 4×10^3 cells/well, and then incubated in an incubator at 37° C., 5% CO2, and saturated humidity for 24 h. To the negative control wells, were added RPMI 1640 cell culture medium containing 10% fetal bovine serum in the same volume as the drug. After cultured for 24 h, to the 96-well plate, were sequentially added AR PROTACs compounds 279, 281, 282, ARV-110 and PI3K inhibitor Duvelisib, respectively.
as §1, with “adding” for “addition of”, “co-incubating” for “co-incubation”

## N#Cc1ccc(O[C@H]2CC[C@H](NC(=O)c3ccc(N4CCC(CN5CCN(c6cc7c(cc6F)C(=O)N(C6CCC(=O)NC6=O)C7=O)CC5)CC4)nn3)CC2)cc1Cl (some centres unmarked) [ARV-110, reference compound]
MDA-MB-453 cells [1]
  inhibitory effect on the proliferation of MDA-MB-453 cells (in words): inhibit the proliferation of MDA-MB-453 cells to varying degrees
MDA-MB-453 cells [2]
  effect of drug combination with Alpelisib on inhibiting the proliferation of MDA-MB-453 cells: synergistic effect
MDA-MB-453 cells [3]
  effect of drug combination with Idelalisib on inhibiting the proliferation of MDA-MB-453 cells: synergistic effect
MDA-MB-453 cells [4]
  effect of drug combination with Paclitaxel on inhibiting the proliferation of MDA-MB-453 cells: synergistic effect
MDA-MB-453 cells [5]
  effect of drug combination with Duvelisib on inhibiting the proliferation of MDA-MB-453 cells: synergistic effect

## COc1cc(O[C@H]2C(C)(C)[C@H](NC(=O)c3ccc(N4CCC(CN5CCN(c6ccc(C(=O)N[C@H]7CCC(=O)NC7=O)c(F)c6)CC5)CC4)cc3)C2(C)C)ccc1C#N [ARV-766, reference compound]
MDA-MB-453 cells [1]
  inhibitory effect on the proliferation of MDA-MB-453 cells (in words): inhibit the proliferation of MDA-MB-453 cells to varying degrees
MDA-MB-453 cells [2]
  effect of drug combination with Alpelisib on inhibiting the proliferation of MDA-MB-453 cells: synergistic effect
MDA-MB-453 cells [3]
  effect of drug combination with Idelalisib on inhibiting the proliferation of MDA-MB-453 cells: synergistic effect

## N#Cc1ccc(O[C@H]2CC[C@H](NC(=O)c3cnc(N4C[C@@H]5[C@@H](CN6CCN(c7ccc8c(c7)C(=O)N(C7CCC(=O)NC7=O)C8=O)CC6)[C@@H]5C4)cn3)CC2)cc1Cl (some centres unmarked) [Compound 177]
MDA-MB-453 cells [1]
  inhibitory effect on the proliferation of MDA-MB-453 cells (in words): inhibit the proliferation of MDA-MB-453 cells to varying degrees

## N#Cc1ccc(O[C@H]2CC[C@H](NC(=O)c3ccc(N4CCC(CN5CCC6(CC5)CN(c5ccc7c(c5)C(=O)N(C5CCC(=O)NC5=O)C7=O)C6)CC4)nn3)CC2)cc1Cl (some centres unmarked) [Compound 230]
MDA-MB-453 cells [1]
  inhibitory effect on the proliferation of MDA-MB-453 cells (in words): inhibit the proliferation of MDA-MB-453 cells to varying degrees

## N#Cc1ccc(O[C@H]2CC[C@H](NC(=O)c3ccc(N4CC5CN(CC6CCN(c7cc8c(cc7F)C(=O)N(C7CCC(=O)NC7=O)C8=O)CC6)CC5C4)nn3)CC2)cc1Cl (some centres unmarked) [Compound 259]
MDA-MB-453 cells [1]
  inhibitory effect on the proliferation of MDA-MB-453 cells (in words): inhibit the proliferation of MDA-MB-453 cells to varying degrees

## N#Cc1ccc(O[C@H]2CC[C@H](NC(=O)c3cnc(N4CCC(CN5CCC6(CC5)CN(c5ccc7c(c5)C(=O)N(C5CCC(=O)NC5=O)C7=O)C6)CC4)nn3)CC2)cc1Cl (some centres unmarked) [Compound 279]
MDA-MB-453 cells [1]
  inhibitory effect on the proliferation of MDA-MB-453 cells (in words): inhibit the proliferation of MDA-MB-453 cells to varying degrees
MDA-MB-453 cells [2]
  effect of drug combination with Alpelisib on inhibiting the proliferation of MDA-MB-453 cells: synergistic effect
MDA-MB-453 cells [3]
  effect of drug combination with Idelalisib on inhibiting the proliferation of MDA-MB-453 cells: synergistic effect
MDA-MB-453 cells [4]
  effect of drug combination with Paclitaxel on inhibiting the proliferation of MDA-MB-453 cells: synergistic effect
MDA-MB-453 cells [5]
  effect of drug combination with Duvelisib on inhibiting the proliferation of MDA-MB-453 cells: synergistic effect

## N#Cc1ccc(O[C@H]2CC[C@H](NC(=O)c3ccc(N4CCC(N5CCC6(CC5)CN(c5ccc7c(c5)C(=O)N(C5CCC(=O)NC5=O)C7=O)C6)CC4)nn3)CC2)cc1Cl (some centres unmarked) [Compound 281]
MDA-MB-453 cells [1]
  inhibitory effect on the proliferation of MDA-MB-453 cells (in words): inhibit the proliferation of MDA-MB-453 cells to varying degrees
MDA-MB-453 cells [2]
  effect of drug combination with Alpelisib on inhibiting the proliferation of MDA-MB-453 cells: synergistic effect
MDA-MB-453 cells [3]
  effect of drug combination with Idelalisib on inhibiting the proliferation of MDA-MB-453 cells: synergistic effect
MDA-MB-453 cells [4]
  effect of drug combination with Paclitaxel on inhibiting the proliferation of MDA-MB-453 cells: synergistic effect
MDA-MB-453 cells [5]
  effect of drug combination with Duvelisib on inhibiting the proliferation of MDA-MB-453 cells: synergistic effect

## CC1(C)[C@H](Oc2ccc(C#N)c(Cl)c2)C(C)(C)[C@H]1N1Cc2nc(C#C[C@H]3CC[C@H](N4CCN(c5ccc6c(c5)C(=O)N(C5CCC(=O)NC5=O)C6=O)CC4)CC3)ccc2C1=O (some centres unmarked) [Compound 325]
MDA-MB-453 cells [1]
  inhibitory effect on the proliferation of MDA-MB-453 cells (in words): inhibit the proliferation of MDA-MB-453 cells to varying degrees

## CC1(C)[C@H](Oc2ccc(C#N)c(Cl)c2)C(C)(C)[C@H]1N1Cc2nc(C#C[C@H]3C[C@H](N4CCN(c5cc6c(cc5F)C(=O)N(C5CCC(=O)NC5=O)C6=O)CC4)C3)ccc2C1=O (some centres unmarked) [Compound 357]
MDA-MB-453 cells [1]; Homo sapiens, MDA-MB-453, CCK-8 or CTG readout, read-out: IC50 values against MDA-MB-453 cells
  IC50: ≤ 2000 nM
MDA-MB-453 cells [1]
  inhibitory effect on the proliferation of MDA-MB-453 cells (in words): inhibit the proliferation of MDA-MB-453 cells to varying degrees

## COc1cc(O[C@H]2C(C)(C)[C@H](N3Cc4nc(C#C[C@H]5CC[C@H](N6CCN(c7ccc8c(c7)C(=O)N(C7CCC(=O)NC7=O)C8=O)CC6)CC5)ccc4C3=O)C2(C)C)ccc1C#N (some centres unmarked) [Compound 400]
MDA-MB-453 cells [1]
  inhibitory effect on the proliferation of MDA-MB-453 cells (in words): inhibit the proliferation of MDA-MB-453 cells to varying degrees

## [2H]C([2H])([2H])NC(=O)c1ccc(N2C(=S)N(c3ccc(C#N)c(C(F)(F)F)c3)C(=O)C2(C)C)cc1F [HC-1119, reference compound]
MDA-MB-453 cells [1]
  inhibitory effect on the proliferation of MDA-MB-453 cells (in words): weak inhibitory effect
